{
  "source": "paper PMC7076013",
  "about": "(Scientific Reports, 2020)",
  "type_in_all_cases": "cell-based, human",
  "key": {"A375 cells [1]": {"system": "A375 cells", "assay": "Ann/PI double staining apoptosis, A375", "protocol": "(§1) The results were ex pressed as a p er centage of a v alue obtained for the untr eated control cells that was arbitrarily set to be 100%. A non- linear regression analysis of obtained results was done b y using Gr aphPad Prism software to calculat e IC50 values.\n3.3. AnnexinV-FITC/P I and caspase det ection. […]\nC ells were anal yz ed b y\nC yFlow® Space Part ec u sing the PartecFloM ax ® software.\n(§2) 3.4. Cell staining with CFSE.\n(§3) To quantify cell division rate, cells were incubated for 10 min at 37 °C in the presence of […]\n(§4) subsequentl y quantified using flow c ytomet r y.\n(§5) Cell motilit y and proliferation was anal yz ed using wound healing assa y. A375 and 518A2 cells were cultivated in 6-well plates until 80% of confluence in monola yers w as reached. Th e scratch was made using a steri le pipette tip which was drawn across the center of the wells. The scratch ed cell la yers w ere wash ed twice with fres h PBS to remove loose or damaged cells. Cells […]\n(§6) 4% paraformald eh yde (PFA) for 10 min at room temperature . The wounds were digitally photographed using a Ni kon inverted microscope TS2 with 5 MPIX cam era.\n(§7) 3.6. Measurement of intracellular nitric oxide"}, "A375 cells [2]": {"system": "A375 cells", "assay": "Caspase activation (ApoStat), A375", "conditions": "A375, 48 h", "protocol": "as §1\n3.3. AnnexinV-FITC/P I and caspase det ection.\nA375 cells were treated with 5 for 48 h, trypsinized, and stained with AnnexinV-FITC (Ann) or propidium iodide (PI), or apostat as proposed by the manufacturer. C ells were anal yz ed b y C yFlow® Space Part ec u sing the PartecFloM ax ® software.\nas §2, §3, §4, §5, §6, §7"}, "518A2 cells [3]": {"system": "518A2 cells", "assay": "Scratch (wound healing) test, 518A2", "conditions": "518A2, IC50 dose, 48 h", "protocol": "(§8) It was observed that the wound in the control of the A375 cells decreased from 172 ± 69 μm to 127 ± 13 μm, compared to the treated cells where it stayed at 177 ± 32 μm. […] (Fig. 10A).To confirm this, the cell proliferation rate was determined after 72 h of incubation in the presence of 5 of the carboxyfluorescein succinimidyl ester (CFSE)-stained cells. […] These findings were further confirmed by fluorescence microscopy of 4′,6-diamidino-2-phenylindole (DAPI)-stained cells (Fig. 10C), for which predominantly large nuclei with scarce nucleoli characteristic for interphase were observed on treatment of A375 cells with 5[60]. In addition, sporadic oblong nuclei with condensed chromatin, typical for apoptosis, were also observed (25 ± 9%). On the other hand in the DAPI-stained 518A2 cells typical apoptotic shrunken nuclei and apoptotic bodies were dominant (60 ± 2%)[61]. The different modes of action on the two melanoma cell lines indicate that cell specific characteristics define the outcome of the treatment with 5. […] Recent data on the compensatory proliferation in response to induced apoptotic cell death in the tumor tissue even favor a nonaggressive approach in the therapy of advanced malignancy. […]\nas §3\n(§9) subsequentl y quantified using flow c ytomet r y. […]"}, "A375 cells [4]": {"system": "A375 cells", "assay": "Scratch (wound healing) test, A375", "conditions": "A375, treated cells, IC50 dose, 48 h; control decreased from 172 ± 69 to 127 ± 13", "protocol": "as §8, §3, §9"}, "518A2 cells [5]": {"system": "518A2 cells", "assay": "Fluorescence microscopy of DAPI-stained cells, 518A2", "conditions": "518A2, 72 h", "protocol": "It was observed that the wound in the control of the A375 cells decreased from 172 ± 69 μm to 127 ± 13 μm, compared to the treated cells where it stayed at 177 ± 32 μm. […] (Fig. 10A).To confirm this, the cell proliferation rate was determined after 72 h of incubation in the presence of 5 of the carboxyfluorescein succinimidyl ester (CFSE)-stained cells. […] These findings were further confirmed by fluorescence microscopy of 4′,6-diamidino-2-phenylindole (DAPI)-stained cells (Fig. 10C), for which predominantly large nuclei with scarce nucleoli characteristic for interphase were observed on treatment of A375 cells with 5[60]. In addition, sporadic oblong nuclei with condensed chromatin, typical for apoptosis, were also observed (25 ± 9%). On the other hand in the DAPI-stained 518A2 cells typical apoptotic shrunken nuclei and apoptotic bodies were dominant (60 ± 2%)[61]. The different modes of action on the two melanoma cell lines indicate that cell specific characteristics define the outcome of the treatment with 5. […] Recent data on the compensatory proliferation in response to induced apoptotic cell death in the tumor tissue even favor a nonaggressive approach in the therapy of advanced malignancy."}, "518A2 cells [6]": {"system": "518A2 cells", "assay": "Intracellular NO (DAF), 518A2", "conditions": "518A2, 48 h; untreated 44.9 ± 5.9", "protocol": "(§10) Given that analogue 5 is designed for NO release, the intracellular release of nitric oxide and production of reactive oxygen species (ROS)/reactive nitrogen species (RNS) was measured by means of redox-sensitive dyes — 4-amino-5-methylamino-2′,7′-difluorofluorescein diacetate (DAF) and dihydrorhodamine-123 (DHR) — after exposure for 48 h (Fig. 11). […] It is well documented that highly intensified production of ROS/RNS is connected with extreme cell damage and consequent cell death, whereas moderate ROS production is involved in the regulation of intracellular processes often involved in cell cycle arrest, proliferation, and differentiation[63],[64]. Apart from the moderate intracellular NO release, it was important to evaluate whether 5 released NO extracellularly. The production of NO from a nitrate group is a three-electron reduction process that can happen by a number of possible 2e^– and 1e^– pathways, commonly involving the initial liberation of a nitrite. A common method of detecting the release of NO in the extracellular compartment is the detection of nitrite ions by the Griess reaction, which quantifies the nitrite resulting from the oxidation of NO[66],[67]. […] Introduction of a nitrate moiety was also found to be beneficial in the case of rofecoxib. […]"}, "A375 cells [7]": {"system": "A375 cells", "assay": "CFSE cell proliferation, A375", "conditions": "A375, 72 h", "protocol": "as §8, §3, §9"}, "518A2 cells [8]": {"system": "518A2 cells", "assay": "Intracellular ROS/RNS (DHR), 518A2", "conditions": "518A2, 48 h; untreated 70.7 ± 5.5", "protocol": "as §10"}, "A375 cells [9]": {"system": "A375 cells", "assay": "Light microscopy of A375 cultures (oval vs. fibroblast-like cells)", "conditions": "A375, treated cells, 48 h", "source_text": "It is known that the A375 cell line has a heterogeneous morphology with a subpopulation of highly metastatic oval cells. […] Thus, it can be concluded that compound 5 affected the two populations in different manners with a stronger effect on the metastatic oval cells."}},
  "data": [
    {"substance": "4-[4-(methylnitrooxy)phenyl]-3-(1,2-dicarba-closo-dodecaboranyl)furan-2(5 H)-one [Compound 5]", "values": [
      {"measurement": "apoptosis (Ann/PI)", "setting": "A375 cells [1]; A375, 48 h", "value": "did not promote significant apoptosis"},
      {"measurement": "apoptosis after prolonged incubation", "setting": "A375 cells [1]; A375, 72 h total", "value": "not accompanied by the appearance of apoptotic cells"},
      {"measurement": "total caspase activity (ApoStat)", "setting": "A375 cells [2]", "value": "only a slight enhancement of total caspase activity"},
      {"measurement": "wound in scratch test", "setting": "518A2 cells [3]", "value": "impossible to distinguish the edges of the wound"},
      {"measurement": "wound width in scratch test", "setting": "A375 cells [4]", "value": "177 ± 32", "unit": "μm"},
      {"measurement": "apoptotic shrunken nuclei and apoptotic bodies (DAPI)", "setting": "518A2 cells [5]", "value": "60 ± 2", "unit": "%"},
      {"measurement": "intracellular NO, mean fluorescence (DAF)", "setting": "518A2 cells [6]", "value": "97.7 ± 1.2"},
      {"measurement": "elevation of % of undivided cells (CFSE) vs control", "setting": "A375 cells [7]", "value": "38 ± 8", "unit": "%"},
      {"measurement": "ROS/RNS production, mean fluorescence (DHR)", "setting": "518A2 cells [8]", "value": "65.6 ± 0.9"},
      {"measurement": "% of oval cells", "setting": "A375 cells [9]; control 46 ± 2.8", "value": "28 ± 2.6", "unit": "%"},
      {"measurement": "% of fibroblast-like cells", "setting": "A375 cells [9]; control 54 ± 3.2", "value": "72 ± 7.4", "unit": "%"}
    ]}
  ]
}
